Converted amounts (≈) assume the structure as drawn.
Legend:
Experiment in all cases: ≥ marks a high value that may be exact or a test limit, other limits are often not marked, values filed in µg/mL are converted to µM
[1] = test system: Staphylococcus aureus NCTC 10788
[2] = test system: Pseudomonas aeruginosa ATCC 27853
[3] = test system: Escherichia coli NCTC 10418
[4] = test system: Staphylococcus aureus NCTC 12493
[5] = test system: Enterococcus faecalis NCTC 12697
[6] = test system: Candida albicans NCYC 1467
[7] = test system: Klebsiella pneumoniae ATCC 43816

MIC [1] [µM] | MIC [2] [µM] | MIC [3] [µM] | MIC [4] [µM] | MIC [5] [µM] | MIC [6] [µM] | MIC [7] [µM] | Structure (SMILES)
4 (≈ 12.1 µg/mL) | 8 (≈ 24.2 µg/mL) | 4 (≈ 12.1 µg/mL) | 8 (≈ 24.2 µg/mL) | ≥ 128 | 4 (≈ 12.1 µg/mL) | 8 (≈ 24.2 µg/mL) | CSCC[C@H](NC(=O)[C@H](CC(=O)O)NC(=O)[C@@H](NC(=O)[C@@H](NC(=O)[C@H](CCCCN)NC(=O)[C@H](CC(N)=O)NC(=O)[C@H](CC(C)C)NC(=O)[C@@H](NC(=O)[C@H](C)NC(=O)[C@H](CCCCN)NC(=O)CNC(=O)[C@H](C)NC(=O)[C@H](C)NC(=O)[C@H](CCCCN)NC(=O)CNC(=O)[C@@H](NC(=O)[C@H](CC(N)=O)NC(=O)[C@H](CCCCN)NC(=O)[C@H](CC(C)C)NC(=O)[C@H](CC(C)C)NC(=O)[C@H](CC(=O)O)NC(=O)[C@H](CCCCN)NC(=O)[C@H](Cc1c[nH]c2ccccc12)NC(=O)[C@H](CC(C)C)NC(=O)[C@H](C)N)C(C)C)C(C)C)C(C)C)[C@@H](C)O)C(=O)N[C@H](C(=O)N[C@@H](CC(N)=O)C(=O)N[C@@H](CCC(N)=O)C(N)=O)C(C)C [ALWKDLLKNVGKAAGKAVLNKVTDMVNQ]
2 (≈ 5.23 µg/mL) | 4 (≈ 10.5 µg/mL) | 2 (≈ 5.23 µg/mL) | 2 (≈ 5.23 µg/mL) | 2 (≈ 5.23 µg/mL) | 4 (≈ 10.5 µg/mL) | 2 (≈ 5.23 µg/mL) | CC[C@H](C)[C@H](NC(=O)[C@H](CCCCN)NC(=O)[C@H](CO)NC(=O)[C@H](Cc1c[nH]c2ccccc12)NC(=O)[C@H](CC(C)C)NC(=O)CN)C(=O)N[C@@H](CCCCN)C(=O)N[C@@H](CCCCN)C(=O)N[C@@H](C)C(=O)N[C@@H](C)C(=O)N[C@@H](CCCCN)C(=O)N[C@H](C(=O)N[C@@H](C)C(=O)NCC(=O)N[C@@H](CCCCN)C(=O)N[C@@H](C)C(=O)N[C@@H](C)C(=O)N[C@@H](CC(C)C)C(=O)NCC(=O)N[C@@H](Cc1ccccc1)C(=O)N[C@H](C(=O)N[C@@H](CC(N)=O)C(=O)N[C@@H](CCCCN)C(=O)N[C@@H](CCSC)C(=O)N[C@H](C(N)=O)C(C)C)C(C)C)[C@@H](C)O [GLWSKIKKAAKTAGKAALGFVNKMV]
≥ 512 | > 512 | ≥ 512 | ≥ 512 | ≥ 512 | ≥ 512 | ≥ 512 | CC[C@H](C)[C@@H]1NC(=O)[C@H](C)NC(=O)[C@@H](NC(=O)[C@H](CCCCN)NC(=O)[C@H](C)NC(=O)[C@H](C)NC(=O)[C@H](CC(C)C)NC(=O)CNC(=O)[C@H](C)NC(=O)[C@@H](NC(=O)[C@H](CC(C)C)NC(=O)[C@@H]2CCCN2C(=O)[C@H](CC(C)C)NC(=O)[C@@H](N)Cc2ccccc2)[C@@H](C)CC)CSSC[C@@H](C(=O)O)NC(=O)[C@H](CCCCN)NC(=O)[C@H](CCCCN)NC(=O)[C@H]([C@@H](C)O)NC1=O [FLPLIAGLAAKCAITKKC]
≥ 512 | > 512 | ≥ 512 | ≥ 512 | ≥ 512 | ≥ 512 | ≥ 512 | CC(C)C[C@H](NC(=O)[C@H](CCC(N)=O)NC(=O)[C@H](CCC(N)=O)NC(=O)[C@H](C)NC(=O)CNC(=O)[C@H](C)NC(=O)[C@H](CCCCN)NC(=O)CNC(=O)[C@@H](NC(=O)[C@H](CCC(N)=O)NC(=O)[C@H](CCCCN)NC(=O)[C@@H]1CCCN1C(=O)[C@H](CC(C)C)NC(=O)[C@H](Cc1ccc(O)cc1)NC(=O)[C@H](CCCCN)NC(=O)[C@H](C)NC(=O)CNC(=O)[C@H](C)NC(=O)[C@H](CCCCN)NC(=O)[C@H](Cc1ccccc1)NC(=O)[C@H](CC(C)C)NC(=O)[C@H](CO)NC(=O)[C@H](CO)NC(=O)[C@H](Cc1ccccc1)NC(=O)CN)C(C)C)C(N)=O [GFSSLFKAGAKYLPKQVGKAGAQQL]

Source: DBAASP
